# Reference: patent publication US20240197890A1, “FLAVONE DERIVATIVES AND USES IN TARGETING CK2-MEDIATED DISEASES AND CONDITIONS” (Salk Institute for Biological Studies, priority 2020, published 2024)
# Key:
# CK2 Y255 = assay: Immunofluorescence of CK2 Y255 phosphorylation in nuclei of primary human astrocytes; assay type: cell-based; settings: 20 μM, 5 h
# Procedure: Immunotluorescence. […] After treatment, cells were fixed with 4% paraformaldehyde solution for 20 min at room temperature and washed 3× with DPBS for 10 min each. The cells were permeabilized using 5% horse serum and 10% Triton X in DPBS for 15 min at room temperature and blocked with 5% horse serum in PBS for 30 min at room temperature. Cells were incubated with primary antibodies in blocking buffer either overnight at 4° C. or for 2 hours at room temperature. After incubation, cells were washed 3× with PBS, blocked using 5% horse serum in PBS for 30 min at room temperature, and incubated with Cy3 red-labeled or AF488 green-labeled secondary antibodies diluted in blocking buffer for 1 hour at room temperature. The cells were washed once with PBS for 10 min, then counter-stained with DAPI. The cells were washed 3× with PBS and mounted with glass coverslips and Immu-Mount solution. Images were obtained with the Zeiss fluorescent microscope. […]
# LC3-II = LC3-II in AD patient-derived induced neurons; assay type: cell-based, human; settings: 24 h
# Procedure: (§1) Western blotting. For drug treatment assays, cells were treated with vehicle (DMSO) or 20 μM compound and stimulated with IL1-B 10 ng/mL for 1 h, 6 h, or 24 h. Cells were dissociated with 1:1 Accutase:papain for 3 min at rt, pelleted for 5 min at 800 g, and washed twice with cold DPBS. Pellets were lysed with RIPA buffer (Sigma R0278) supplemented with Halt protease inhibitor cocktail (Thermo Fisher 78445) and clarified by centrifugation (16,000 g, 10 min, 4° C.). Protein concentration was determined by BCA assay (Thermo Fisher). Proteins were denatured in 1×LDS Buffer and 2.5% beta-mercaptoethanol (X) for 10 min at 70° C., separated on Bolt 4-12% Bis-Tris Plus polyacrylamide gels (Thermo Fisher), transferred to PVDF membranes using the iBlot 2 Dry Blotting System, and blocked with 0.1% casein-PBS (Bio-Rad) for 1 h at room temperature. The blots were incubated with primary antibodies overnight at 4° C. in PBS containing 0.1% casein and 0.2% Tween-20. […] The blots were imaged using the Odyssey CLx imaging system and blots were analyzed on the ImageStudio software (LI-COR).
# CK2α1 = biological target: T1, CK2α1 (Homo sapiens, UniProt P68400); assay: Thermal shift assay with Western blotting in astrocyte extracts; assay type: binding; settings: extracts of iPSC-derived astrocytes
# T1 construct: endogenous in cells
# Procedure: Thermal shift assay and TPP. […] Protein concentration was determined by BCA assay (Bio-Rad), and lysates were diluted to 2 mg/mL. […] Reactions were incubated at rt for 30 min, after which each treated extract was divided into 10 aliquots of 95 μl in PCR strip tubes and stored on ice. […] A small aliquot (5 μl) of supernatant was saved for Western blotting, and the rest was snap frozen at −80 C and submitted for LC-MS/MS.
# HMGB1 = HMGB1 secretion in AD patient iPSC-derived astrocytes (Western blot); assay type: cell-based, human
# Procedure: as §1
# To further investigate this CK2 dysregulation in an in vitro AD model, iPSC-derived astrocytes were generated from a cohort of 6 AD patients and 5 age-matched controls. […] HMGB1 was detected in media from AD astrocytes in the absence of inflammatory stimuli (FIG. 12C). […]
# [1] = system: microglial phagocytosis of pHrodo E. coli beads; assay: Microglial phagocytosis assay; assay type: cell-based, human; settings: 20 μM, 5 h treatment
# Procedure: Phagocytosis assay. […] Then, 0.5 μl of pH rodo E. coli-FITC beads (Thermo Fisher, P35366) was added per well with gentle mixing and the cells were incubated for another 4 hours. pHrodo beads only fluoresce when they are internalized in cells. Cells were then collected by scraping, washed with FACS buffer, and counter-stained with Zombie Violet to assess viability. Live cells were analyzed on the FACS Canto instrument for geometric mean fluorescence on the FITC channel. The background FITC fluorescence value (pHrodo beads only) was subtracted from each mean, and fold-change was computed across experimental groups.
# T1 sequence (P68400 whole entry): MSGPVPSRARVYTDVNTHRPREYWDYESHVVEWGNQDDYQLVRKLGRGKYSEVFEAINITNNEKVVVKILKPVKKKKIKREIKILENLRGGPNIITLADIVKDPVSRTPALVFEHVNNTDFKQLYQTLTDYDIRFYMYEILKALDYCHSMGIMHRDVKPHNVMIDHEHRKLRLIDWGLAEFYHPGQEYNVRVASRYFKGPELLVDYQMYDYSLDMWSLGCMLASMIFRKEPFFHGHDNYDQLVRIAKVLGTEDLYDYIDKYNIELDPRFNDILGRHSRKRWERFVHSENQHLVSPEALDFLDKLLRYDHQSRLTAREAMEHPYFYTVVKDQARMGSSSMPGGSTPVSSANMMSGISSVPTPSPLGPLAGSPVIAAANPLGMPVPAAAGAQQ
compound,measurement,setting,value
"COc1cc(-c2cc(=O)c3c(O)cc(O)cc3o2)ccc1O [CHR, chrysoeriol]",pCK2/CK2 in nuclei,CK2 Y255,reduced
same,LC3-II (marker of autophagy/mitophagy),LC3-II,increased
same,binding / thermal stabilization of CK2a,CK2α1,dose-dependently stabilized
same,binding / thermal stabilization of CK2a,CK2α1; listed as chrysoeriol,bind CK2a
same,HMGB1 secretion,HMGB1,reduced
same,microglial phagocytosis of pHrodo E. coli beads,[1],blocked
